{"source": "ChEMBL document CHEMBL5532702", "about": "“Coumarin-furo[2,3-d]pyrimidone hybrid molecules targeting human liver cancer cells: synthesis, anticancer effect, EGFR inhibition and molecular docking studies” (RSC Med Chem, 2024)", "note": "Calls of active or inactive are those of the source. The calls are words filed in the database; no cut-off is given here.", "data": [{"test_system": "HepG2", "test": "Inhibition of cell migration in human HepG2 cells at 5.42 to 27.10 micromol/L incubated for 24 hrs by crystal violet staining based microscopic analysis", "assay_type": "functional", "conditions": "dose 5.42-27.1 µmol/L", "values": [{"smiles": "CCN(CC)c1nc2oc(C)c(C(=O)NN)c2c(=O)n1-c1ccc(C)cc1", "inhibition": "Active"}]}, {"test_system": "HepG2", "test": "Cytotoxicity against human HepG2 cells assessed as reduction in cell viability incubated for 48 hrs by CCK-8 assay", "conditions": "HepG2, 48 h", "units": {"IC50": "µM"}, "values": [{"smiles": "CCCNc1nc2oc(C)c(C(=O)NN)c2c(=O)n1-c1ccc(C)cc1", "IC50": 84.1}, {"smiles": "CCCN(CCC)c1nc2oc(C)c(C(=O)NN)c2c(=O)n1-c1ccc(C)cc1", "IC50": 8.53}, {"smiles": "CCN(CC)c1nc2oc(C)c(C(=O)NNC(=O)c3cc4ccccc4oc3=O)c2c(=O)n1-c1ccc(C)cc1", "IC50": "> 100"}, {"smiles": "CCCCNc1nc2oc(C)c(C(=O)NN)c2c(=O)n1-c1ccccc1", "IC50": "> 100"}, {"smiles": "CNC(=O)c1cc(Oc2ccc(NC(=O)Nc3ccc(Cl)c(C(F)(F)F)c3)cc2)ccn1", "note": "[SORAFENIB]", "IC50": 12.3}, {"smiles": "Cc1cccc(-n2c(N3CCOCC3)nc3oc(C)c(C(=O)NN)c3c2=O)c1", "IC50": 40.8}, {"smiles": "CCN(CC)c1nc2oc(C)c(C(=O)NN)c2c(=O)n1-c1ccc(C)cc1", "IC50": 17.2}, {"smiles": "CCN(CC)c1nc2oc(C)c(C(=O)NNC(=O)c3cc4ccccc4oc3=O)c2c(=O)n1-c1ccccc1", "IC50": 7.89}, {"smiles": "CCN(CC)c1nc2oc(C)c(C(=O)NN)c2c(=O)n1-c1ccccc1", "IC50": 30.7}, {"smiles": "CCCNc1nc2oc(C)c(C(=O)NNC(=O)c3cc4ccccc4oc3=O)c2c(=O)n1-c1ccc(C)cc1", "IC50": 21.8}, {"smiles": "CCCN(CCC)c1nc2oc(C)c(C(=O)NNC(=O)c3cc4ccccc4oc3=O)c2c(=O)n1-c1ccccc1", "IC50": 14.3}, {"smiles": "CCCNc1nc2oc(C)c(C(=O)NN)c2c(=O)n1-c1ccccc1", "IC50": 69.3}, {"smiles": "CCCNc1nc2oc(C)c(C(=O)NNC(=O)c3cc4ccccc4oc3=O)c2c(=O)n1-c1cccc(C)c1", "IC50": 24.3}, {"smiles": "Cc1ccc(-n2c(N3CCOCC3)nc3oc(C)c(C(=O)NNC(=O)c4cc5ccccc5oc4=O)c3c2=O)cc1", "IC50": 40}, {"smiles": "CCN(CC)c1nc2oc(C)c(C(=O)NN)c2c(=O)n1-c1cccc(C)c1", "IC50": 36.5}, {"smiles": "Cc1oc2nc(N3CCOCC3)n(-c3ccccc3)c(=O)c2c1C(=O)NNC(=O)c1cc2ccccc2oc1=O", "IC50": 24.2}, {"smiles": "CCCNc1nc2oc(C)c(C(=O)NN)c2c(=O)n1-c1cccc(C)c1", "IC50": 58.9}, {"smiles": "Cc1ccc(-n2c(N3CCOCC3)nc3oc(C)c(C(=O)NN)c3c2=O)cc1", "IC50": 55.9}, {"smiles": "CCCN(CCC)c1nc2oc(C)c(C(=O)NN)c2c(=O)n1-c1ccccc1", "IC50": 17}, {"smiles": "CCN(CC)c1nc2oc(C)c(C(=O)NNC(=O)c3cc4ccccc4oc3=O)c2c(=O)n1-c1cccc(C)c1", "IC50": 26.5}, {"smiles": "CCCN(CCC)c1nc2oc(C)c(C(=O)NNC(=O)c3cc4ccccc4oc3=O)c2c(=O)n1-c1ccc(C)cc1", "IC50": 22.2}, {"smiles": "Cc1oc2nc(N3CCOCC3)n(-c3ccccc3)c(=O)c2c1C(=O)NN", "IC50": 45.1}, {"smiles": "CCCCNc1nc2oc(C)c(C(=O)NN)c2c(=O)n1-c1cccc(C)c1", "IC50": 73.9}, {"smiles": "CCCCNc1nc2oc(C)c(C(=O)NN)c2c(=O)n1-c1ccc(C)cc1", "IC50": "> 100"}, {"smiles": "CCCCNc1nc2oc(C)c(C(=O)NNC(=O)c3cc4ccccc4oc3=O)c2c(=O)n1-c1ccc(C)cc1", "IC50": 14.5}, {"smiles": "Cc1cccc(-n2c(N3CCOCC3)nc3oc(C)c(C(=O)NNC(=O)c4cc5ccccc5oc4=O)c3c2=O)c1", "IC50": 26.8}, {"smiles": "CCCCNc1nc2oc(C)c(C(=O)NNC(=O)c3cc4ccccc4oc3=O)c2c(=O)n1-c1ccccc1", "IC50": 8.74}, {"smiles": "CCCCNc1nc2oc(C)c(C(=O)NNC(=O)c3cc4ccccc4oc3=O)c2c(=O)n1-c1cccc(C)c1", "IC50": 13}, {"smiles": "CCCNc1nc2oc(C)c(C(=O)NNC(=O)c3cc4ccccc4oc3=O)c2c(=O)n1-c1ccccc1", "IC50": 7.72}]}, {"test_system": "HepG2", "test": "Inhibition of cell invasion in human HepG2 cells at 5.42 to 27.10 micromol/L incubated for 24 hrs by crystal violet staining based microscopic analysis", "assay_type": "functional", "conditions": "dose 5.42-27.1 µmol/L", "values": [{"smiles": "CCN(CC)c1nc2oc(C)c(C(=O)NN)c2c(=O)n1-c1ccc(C)cc1", "inhibition": "Active"}]}]}
